These results are taken from US11512053B2, “Arginine methyltransferase inhibitors and uses thereof” (priority 2013, dated 2022).

Each structure is given as a SMILES string. Read-outs that look alike come from different tables or passages of the source.

The assay concerns the target T1, full-length human PRMT3 isoform 1 (GST-tagged) (Homo sapiens, UniProt O60678).
T1 construct: GST-tagged PRMT3; made in house; host or cells: E. coli BL21(DE3) Gold
Nature of the assay: PRMT3 Biochemical Assay (3H-SAM Flashplate, peptide substrate). From the text: General Materials. S-adenosylmethionine (SAM), S-adenosylhomocysteine (SAH), bicine, Tween20, dimethylsulfoxide (DMSO), bovine skin gelatin (BSG),), isopropyl-β-D-thiogalactopyranoside (IPTG), and Tris(2-carboxyethyl)phosphine hydrochloride solution (TCEP) were purchased from Sigma-Aldrich at the highest level of purity possible. ^3H-SAM was purchase from American Radiolabeled Chemicals with a specific activity of 80 Ci/mmol. 384-well streptavidin Flashplates were purchased from PerkinElmer.
Substrates. Peptide containing the classic RMT substrate motif was synthesized with an N-terminal linker-affinity tag motif and a C-terminal amide cap by 21st Century Biochemicals. The peptide was purified by high-performance liquid chromatography (HPLC) to greater than 95% purity and confirmed by liquid chromatography mass spectrometry (LC-MS). The sequence was Biot-Ahx-[…]-amide (SEQ ID NO.:11).
Molecular Biology: Full-length human PRMT3 (NM_005788.3) isoform 1 transcript clone was amplified from an HEK 293 cDNA library and subcloned into pGEX-KG (GE Life Sciences). The resulting construct encodes an N-terminal GST tag and a thrombin cleavage sequence ([…] […] […] […] S) (SEQ ID NO.:12) fused directly to Cys 2 of PRMT3.
Protein Expression. E. coli (BL21(DE3) Gold, Stratagene) made competent by the CaCl2) method were transformed with the PRMT3 construct and ampicillin selection. Protein over-expression was accomplished by growing the PRMT3 expressing E. coli clone and inducing expression with 0.3 mM IPTG at 16° C. The culture was grown for 12 hours, harvested by centrifugation, and stored at −80° C. for purification.
Protein Purification. […] GST-tagged PRMT3 was eluted with 50 mM Tris, 2 mM glutathione, pH 7.1 and 50 mM Tris, 20 mM glutathione, pH 7.1. Pooled fractions were dialysed in 20 mM Tris, 50 mM NaCl, 5% glycerol, 1 mM EDTA, 1 mM DTT, pH7.5 (Buffer B) and applied to a Q Sepharose Fast Flow column. GST-tagged PRMT3 was eluted by 500 mM NaCl in buffer B. Pooled fractions were dialyzed in 25 mM phosphate buffer, 100 mM NaCl, 5% glycerol, 2 mM DTT, pH 6.8 (Buffer C) and loaded on to a ceramic hydroxyapatite column. GST-tagged PRMT3 eluted with 25-400 mM phosphate in buffer C. Protein was concentrated and buffer was exchanged to 20 mM Tris, 150 mM NaCl, 5% glycerol, 5 mM β-mercaptoethanol, pH7.8 by ultrafiltration. The purity of recovered protein was 70%.
General Procedure for PRMT3 Enzyme Assays on Peptide Substrates. The assays were all performed in a buffer consisting of 20 mM Bicine (pH=7.6), 1 mM TCEP, 0.005% BSG, and 0.002% Tween 20, prepared on the day of use. Compounds in 100% DMSO (1 ul) were spotted into a polypropylene 384-well V-bottom plates (Greiner) using a Platemate Plus outfitted with a 384-channel head (Thermo Scientific). DMSO (1 ul) was added to Columns 11, 12, 23, 24, rows A-H for the maximum signal control and 1 ul of SAH, a known product and inhibitor of PRMT3, was added to columns 11, 12, 23, 24, rows I-P for the minimum signal control. A cocktail (40 ul) containing the PRMT3 enzyme was added by Multidrop Combi (Thermo-Fisher). The compounds were allowed to incubate with PRMT3 for 30 min at room temperature, then a cocktail (10 ul) containing SAM and peptide was added to initiate the reaction (final volume=51 ul). The final concentrations of the components were as follows: PRMT3 was 0.5 nM, ^3H-SAM was 100 nM, non-radiolabeled SAM was 1.8 uM, peptide was 330 nM, SAH in the minimum signal control wells was 1 mM, and the DMSO concentration was 2%. The assays were stopped by the addition of potassium chloride (10 ul) to a final concentration of 100 mM. 50 ul of the reaction in the 384-well polypropylene plate was then transferred to a 384-well Flashplate and the biotinylated peptides were allowed to bind to the streptavidin surface for at least 1 hour before being washed once with 0.1% Tween20 in a Biotek ELx405 plate washer. […]

T1 sequence (O60678 with tags, fused parts or gaps): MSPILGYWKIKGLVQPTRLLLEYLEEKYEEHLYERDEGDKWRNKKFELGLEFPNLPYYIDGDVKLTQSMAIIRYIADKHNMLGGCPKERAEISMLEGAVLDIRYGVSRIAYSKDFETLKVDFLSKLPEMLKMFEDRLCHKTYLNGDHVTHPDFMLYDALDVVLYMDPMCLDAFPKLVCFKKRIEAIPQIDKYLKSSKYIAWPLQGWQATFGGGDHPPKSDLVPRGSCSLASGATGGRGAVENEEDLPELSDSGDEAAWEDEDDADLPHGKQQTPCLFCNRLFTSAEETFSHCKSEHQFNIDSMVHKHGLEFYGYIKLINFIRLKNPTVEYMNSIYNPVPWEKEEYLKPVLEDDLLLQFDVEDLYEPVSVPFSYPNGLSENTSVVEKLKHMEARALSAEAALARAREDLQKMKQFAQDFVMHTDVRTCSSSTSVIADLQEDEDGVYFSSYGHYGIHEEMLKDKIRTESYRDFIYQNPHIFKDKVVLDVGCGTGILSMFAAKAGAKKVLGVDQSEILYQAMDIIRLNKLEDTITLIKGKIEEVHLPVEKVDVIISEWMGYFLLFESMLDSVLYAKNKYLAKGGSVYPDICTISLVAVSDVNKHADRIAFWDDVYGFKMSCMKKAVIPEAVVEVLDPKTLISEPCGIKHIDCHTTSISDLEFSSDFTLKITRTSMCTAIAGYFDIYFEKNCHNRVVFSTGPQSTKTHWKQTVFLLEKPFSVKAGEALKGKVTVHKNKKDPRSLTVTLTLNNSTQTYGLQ

In turn, `CN(CCN)Cc1c[nH]nc1CCc1ccccc1` [Compound 9] returned a 50% inhibitory concentration (IC50) of 3.01 to 10 µM. For the same compound, under “single experiment or average of multiple experiments”, the IC50 was determined as 8.93 µM.
